Assay results reported in ChEMBL document CHEMBL1177675, “Synthesis and antiproliferative evaluation of certain iminonaphtho[2,3-b]furan derivatives” (Bioorg Med Chem, 2010).
Activity calls are given as the source filed them. No cut-off for these calls is given here.

system: SF-268; test: Cytotoxicity against human SF268 cells after 72 hrs by XTT assay; format: functional; settings: SF-268, 72 h

Row | SMILES | GI50
1 | CO/N=C1/c2ccccc2C(=O)c2occc21 | 16.5 µM
2 | CCN(CC)CCOC(=O)c1ccc(/N=C2/c3ccccc3/C(=N/c3ccc(C(=O)OCCN(CC)CC)cc3)c3occc32)cc1 | 4.1 µM
3 | O=C1C(=O)c2ccoc2-c2ccccc21 | 6.38 µM

system: MCF7; test: Selectivity index, ratio of GI50 for human Detroit 551 cells to GI50 for human MCF7 cells; format: functional; settings: not given

Row | SMILES | RatioGI50
4 | CO/N=C1/c2ccccc2C(=O)c2occc21 | >9.85
5 | CCN(CC)CCOC(=O)c1ccc(/N=C2/c3ccccc3/C(=N/c3ccc(C(=O)OCCN(CC)CC)cc3)c3occc32)cc1 | 0.76
6 | O=C1C(=O)c2ccoc2-c2ccccc21 | 0.9

system: K562; test: Cell cycle arrest in human K562 cells assessed as accumulation at G0/G1 phase at 1 uM after 24 hrs using propidium iodide staining by flow cytometry; format: functional; settings: not given

Row | SMILES | Activity
7 | CO/N=C1/c2ccccc2C(=O)c2occc21 | 26.1%
8 | CCN(CC)CCOC(=O)c1ccc(/N=C2/c3ccccc3/C(=N/c3ccc(C(=O)OCCN(CC)CC)cc3)c3occc32)cc1 | 40.4%
9 | O=C1C(=O)c2ccoc2-c2ccccc21 | 36.1%

system: K562; test: Selectivity index, ratio of GI50 for human Detroit 551 cells to GI50 for human K562 cells; format: functional; settings: not given

Row | SMILES | RatioGI50
10 | CO/N=C1/c2ccccc2C(=O)c2occc21 | >166.67
11 | CCN(CC)CCOC(=O)c1ccc(/N=C2/c3ccccc3/C(=N/c3ccc(C(=O)OCCN(CC)CC)cc3)c3occc32)cc1 | 3.13
12 | O=C1C(=O)c2ccoc2-c2ccccc21 | 9.02

system: K562; test: Induction of apoptosis in human K562 cells assessed as PARP cleavage after 48 hrs by immunoblot analysis; format: functional, cell-based; settings: not given

Row | SMILES | Activity
13 | CO/N=C1/c2ccccc2C(=O)c2occc21 | Dose-dependent effect

system: K562; test: Induction of apoptosis in human K562 cells assessed as formation of fragmented DNA at 1 to 10 uM after 48 hrs using ethidium bromide staining by agarose gel electrophoresis; format: functional, cell-based; settings: not given

Row | SMILES | Activity
14 | CO/N=C1/c2ccccc2C(=O)c2occc21 | Active

system: not listed separately; test: Cytotoxicity against human Detroit 551 cells after 72 hrs by XTT assay; format: cell-based; settings: not given

Row | SMILES | GI50 at 72 h
15 | CO/N=C1/c2ccccc2C(=O)c2occc21 | > 100 µM
16 | CCN(CC)CCOC(=O)c1ccc(/N=C2/c3ccccc3/C(=N/c3ccc(C(=O)OCCN(CC)CC)cc3)c3occc32)cc1 | 1.97 µM
17 | O=C1C(=O)c2ccoc2-c2ccccc21 | 5.77 µM

system: NCI-H460; test: Cytotoxicity against human NCI-H460 cells after 72 hrs by XTT assay; format: functional; settings: NCI-H460, 72 h

Row | SMILES | GI50
18 | CO/N=C1/c2ccccc2C(=O)c2occc21 | 6.76 µM
19 | CCN(CC)CCOC(=O)c1ccc(/N=C2/c3ccccc3/C(=N/c3ccc(C(=O)OCCN(CC)CC)cc3)c3occc32)cc1 | 2.23 µM
20 | O=C1C(=O)c2ccoc2-c2ccccc21 | 6.38 µM

system: K562; test: Cytotoxicity against human K562 cells after 72 hrs by XTT assay; format: functional; settings: K562, 72 h

Row | SMILES | GI50
21 | CO/N=C1/c2ccccc2C(=O)c2occc21 | 0.6 µM
22 | CCN(CC)CCOC(=O)c1ccc(/N=C2/c3ccccc3/C(=N/c3ccc(C(=O)OCCN(CC)CC)cc3)c3occc32)cc1 | 0.63 µM
23 | O=C1C(=O)c2ccoc2-c2ccccc21 | 0.64 µM

system: NCI-H460; test: Selectivity index, ratio of GI50 for human Detroit 551 cells to GI50 for human NCI-H460 cells; format: functional; settings: not given

Row | SMILES | RatioGI50
24 | CO/N=C1/c2ccccc2C(=O)c2occc21 | >14.79
25 | CCN(CC)CCOC(=O)c1ccc(/N=C2/c3ccccc3/C(=N/c3ccc(C(=O)OCCN(CC)CC)cc3)c3occc32)cc1 | 0.88
26 | O=C1C(=O)c2ccoc2-c2ccccc21 | 0.9

system: SF-268; test: Cytotoxicity against human SF268 cells at 4 ug/ml after 48 hrs by sulforhodamine B assay relative to control; format: functional; settings: not given

Row | SMILES | Activity
27 | O=[N+]([O-])c1ccc(/N=C2/c3ccccc3/C(=N/c3ccc([N+](=O)[O-])cc3)c3occc32)cc1 | 118%
28 | FC(F)(F)c1ccc(/N=C2/c3ccccc3/C(=N/c3ccc(C(F)(F)F)cc3)c3occc32)cc1 | 105%
29 | CN(C)CCCO/N=C1/c2ccccc2C(=O)c2occc21 | 54%
30 | CO/N=C1/c2ccccc2C(=O)c2occc21 | 22%
31 | CCN(CC)CCOC(=O)c1ccc(/N=C2/c3ccccc3/C(=N/c3ccc(C(=O)OCCN(CC)CC)cc3)c3occc32)cc1 | 18%
32 | O=C1C(=O)c2ccoc2-c2ccccc21 | 0%

system: K562; test: Induction of apoptosis in human K562 cells assessed as morphological changes at 1 to 10 uM after 48 hrs using DAPI staining by fluorescent microscopic analysis; format: functional, cell-based; settings: not given

Row | SMILES | Activity
33 | CO/N=C1/c2ccccc2C(=O)c2occc21 | Active

system: NCI-H460; test: Cytotoxicity against human NCI-H460 cells at 4 ug/ml after 48 hrs by sulforhodamine B assay relative to control; format: functional; settings: not given

Row | SMILES | Activity
34 | O=[N+]([O-])c1ccc(/N=C2/c3ccccc3/C(=N/c3ccc([N+](=O)[O-])cc3)c3occc32)cc1 | 117%
35 | FC(F)(F)c1ccc(/N=C2/c3ccccc3/C(=N/c3ccc(C(F)(F)F)cc3)c3occc32)cc1 | 115%
36 | CN(C)CCCO/N=C1/c2ccccc2C(=O)c2occc21 | 51%
37 | CO/N=C1/c2ccccc2C(=O)c2occc21 | 4%
38 | CCN(CC)CCOC(=O)c1ccc(/N=C2/c3ccccc3/C(=N/c3ccc(C(=O)OCCN(CC)CC)cc3)c3occc32)cc1 | -1%
39 | O=C1C(=O)c2ccoc2-c2ccccc21 | -1%

system: MCF7; test: Cytotoxicity against human MCF7 cells at 4 ug/ml after 48 hrs by sulforhodamine B assay relative to control; format: functional; settings: not given

Row | SMILES | Activity
40 | O=[N+]([O-])c1ccc(/N=C2/c3ccccc3/C(=N/c3ccc([N+](=O)[O-])cc3)c3occc32)cc1 | 111%
41 | FC(F)(F)c1ccc(/N=C2/c3ccccc3/C(=N/c3ccc(C(F)(F)F)cc3)c3occc32)cc1 | 111%
42 | CN(C)CCCO/N=C1/c2ccccc2C(=O)c2occc21 | 74%
43 | CO/N=C1/c2ccccc2C(=O)c2occc21 | 36%
44 | CCN(CC)CCOC(=O)c1ccc(/N=C2/c3ccccc3/C(=N/c3ccc(C(=O)OCCN(CC)CC)cc3)c3occc32)cc1 | -1%
45 | O=C1C(=O)c2ccoc2-c2ccccc21 | 0%

system: K562; test: Cell cycle arrest in human K562 cells assessed as accumulation at Sub-G1 phase at 1 uM after 24 hrs using propidium iodide staining by flow cytometry; format: functional; settings: not given

Row | SMILES | Activity
46 | CO/N=C1/c2ccccc2C(=O)c2occc21 | 4.8%
47 | CCN(CC)CCOC(=O)c1ccc(/N=C2/c3ccccc3/C(=N/c3ccc(C(=O)OCCN(CC)CC)cc3)c3occc32)cc1 | 5.56%
48 | O=C1C(=O)c2ccoc2-c2ccccc21 | 3.75%

system: MCF7; test: Cytotoxicity against human MCF7 cells after 72 hrs by XTT assay; format: functional; settings: MCF7, 72 h

Row | SMILES | GI50
49 | CO/N=C1/c2ccccc2C(=O)c2occc21 | 10.2 µM
50 | CCN(CC)CCOC(=O)c1ccc(/N=C2/c3ccccc3/C(=N/c3ccc(C(=O)OCCN(CC)CC)cc3)c3occc32)cc1 | 2.6 µM
51 | O=C1C(=O)c2ccoc2-c2ccccc21 | 6.42 µM

system: K562; test: Cell cycle arrest in human K562 cells assessed as accumulation at G2/M phase at 1 uM after 24 hrs using propidium iodide staining by flow cytometry; format: functional; settings: not given

Row | SMILES | Activity
52 | CO/N=C1/c2ccccc2C(=O)c2occc21 | 38.2%
53 | CCN(CC)CCOC(=O)c1ccc(/N=C2/c3ccccc3/C(=N/c3ccc(C(=O)OCCN(CC)CC)cc3)c3occc32)cc1 | 52.5%
54 | O=C1C(=O)c2ccoc2-c2ccccc21 | 12.7%

system: K562; test: Induction of apoptosis in human K562 cells assessed as activation of caspase-3 activity after 48 hrs by immunoblot analysis; format: functional, cell-based; settings: not given

Row | SMILES | Activity
55 | CO/N=C1/c2ccccc2C(=O)c2occc21 | Dose-dependent effect

system: SF-268; test: Selectivity index, ratio of GI50 for human Detroit 551 cells to GI50 for human SF268 cells; format: functional; settings: not given

Row | SMILES | RatioGI50
56 | CO/N=C1/c2ccccc2C(=O)c2occc21 | >6.05
57 | CCN(CC)CCOC(=O)c1ccc(/N=C2/c3ccccc3/C(=N/c3ccc(C(=O)OCCN(CC)CC)cc3)c3occc32)cc1 | 0.49
58 | O=C1C(=O)c2ccoc2-c2ccccc21 | 0.9

system: K562; test: Cell cycle arrest in human K562 cells assessed as accumulation at S phase at 1 uM after 24 hrs using propidium iodide staining by flow cytometry; format: functional; settings: not given

Row | SMILES | Activity
59 | CO/N=C1/c2ccccc2C(=O)c2occc21 | 35.7%
60 | CCN(CC)CCOC(=O)c1ccc(/N=C2/c3ccccc3/C(=N/c3ccc(C(=O)OCCN(CC)CC)cc3)c3occc32)cc1 | 7.1%
61 | O=C1C(=O)c2ccoc2-c2ccccc21 | 51.2%
